Assay results reported in patent publication US11731942B1, “3-substituted quinolin-2-one compounds as antibacterial agents” (KING FAISAL UNIVERSITY, priority 2023, dated 2023).
In brackets after ≈: the same amount, converted by molar mass. Where two headings read alike, the source gives them in different places.

Legend:
[1] = tested on: Escherichia coli MTCC 443; assay: In vitro antibacterial activity (CLSI M07-A10 dilution), MIC; assay type: cell-based; settings: MTCC443
[2] = tested on: Enterococcus faecium ATCC 51559 (VRE resistant); assay: as above; assay type: cell-based
[3] = tested on: Pseudomonas aeruginosa MTCC 741; assay: as above; assay type: cell-based; settings: MTCC741
[4] = tested on: Bacillus subtilis MTCC 441; assay: as above; assay type: cell-based; settings: MTCC441
[5] = tested on: Klebsiella pneumonia MTCC 618; assay: as above; assay type: cell-based; settings: Klebsiella pneumoniae, MTCC618
[6] = tested on: Staphylococcus aureus ATCC BAA-1556 (MERSA resistant); assay: as above; assay type: cell-based; settings: ATCCBAA1556
[7] = tested on: Enterococcus faecium ATCC 35667; assay: as above; assay type: cell-based; settings: ATCC35667
[8] = tested on: Staphylococcus aureus ATCC 29213; assay: as above; assay type: cell-based; settings: ATCC29213
[9] = tested on: Staphylococcus epidermidis; assay: as above; assay type: cell-based
[10] = tested on: H37Rv type of M. tuberculosis strains; assay: Anti-tubercular alamar blue microplate MIC; assay type: cell-based; settings: 168 h, mycobacterium tuberculosis H37Rv strain, 7 days at 37° C., read-out: anti-mycobacterial activity (MIC)
[11] = biological target: T1, E. coli DNA Gyrase (Escherichia coli, UniProt P0AES4+P0AES6); assay: Inspiralis DNA gyrase inhibition assay; assay type: biochemical
T1 construct: purchased Inspiralis
T1 sequence (P0AES4 whole entry, one chain of several): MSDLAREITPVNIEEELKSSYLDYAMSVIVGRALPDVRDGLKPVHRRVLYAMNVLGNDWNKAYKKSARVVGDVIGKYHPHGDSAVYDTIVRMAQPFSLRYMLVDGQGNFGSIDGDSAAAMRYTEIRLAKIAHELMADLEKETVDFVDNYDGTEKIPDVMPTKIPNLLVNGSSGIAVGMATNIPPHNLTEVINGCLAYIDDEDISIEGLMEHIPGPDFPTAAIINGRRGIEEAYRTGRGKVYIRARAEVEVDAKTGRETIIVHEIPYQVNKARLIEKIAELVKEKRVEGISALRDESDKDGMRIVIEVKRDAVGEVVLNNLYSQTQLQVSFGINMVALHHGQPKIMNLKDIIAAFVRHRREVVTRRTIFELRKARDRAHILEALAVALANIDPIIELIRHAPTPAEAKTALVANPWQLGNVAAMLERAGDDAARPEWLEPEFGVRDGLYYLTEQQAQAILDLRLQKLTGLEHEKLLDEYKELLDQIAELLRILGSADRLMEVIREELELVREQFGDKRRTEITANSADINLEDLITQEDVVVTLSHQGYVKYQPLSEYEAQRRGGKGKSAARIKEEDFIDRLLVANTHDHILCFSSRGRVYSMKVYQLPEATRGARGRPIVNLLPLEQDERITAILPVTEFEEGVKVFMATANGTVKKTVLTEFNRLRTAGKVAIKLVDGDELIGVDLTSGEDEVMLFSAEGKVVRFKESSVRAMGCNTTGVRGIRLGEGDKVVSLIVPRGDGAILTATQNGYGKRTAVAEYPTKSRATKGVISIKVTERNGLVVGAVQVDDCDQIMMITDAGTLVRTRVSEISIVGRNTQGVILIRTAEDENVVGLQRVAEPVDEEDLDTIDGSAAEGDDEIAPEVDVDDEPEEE
Protocol: Inhibitory potencies were investigated utilizing the Inspiralis assay on streptavidin-coated 96-well microtiter plates. First, the plates were rehydrated with buffer (20 mM Tris-HCl with pH 7.6, 0.01% w/v BSA, 0.05% v/v Tween 20, 137 mM NaCl) and the biotinylated oligonucleotide was then immobilized. After washing off the unbound oligonucleotide, the enzyme test was performed. The reaction volume of 30 μL in buffer (35 mM Tris×HCl with pH 7.5, 4 mM MgCl2, 24 mM KCl, 2 mM DTT, 1.8 mM spermidine, 1 mM ATP, 6.5% w/v glycerol, 0.1 mg/mL albumin) contained 1.5 U of DNA gyrase from E. coli, 0.75 μg of relaxed pNO1 plasmid, and 3 μL solution of the inhibitor in 10% DMSO and 0.008% Tween 20. Reaction solutions were incubated at 37° C. for 30 min. After that, the TF buffer (50 mM NaOAc with pH 5.0, 50 mM NaCl and 50 mM MgCl2) was added to terminate the enzymatic reaction. After additional incubation for 30 min at rt, during which biotinoligonucleotide-plasmid triplex was formed, the unbound plasmid was washed off using TF buffer and SybrGOLD in T10 buffer (10 mM Tris HCl with pH 8.0 and 1 mM EDTA) was added. The fluorescence was measured with a microplate reader (BioTek Synergy H4, excitation: 485 nm, emission: 535 nm). Initial screening was done at 100 or 10 μM concentration of inhibitors. […] GraphPad Prism software was used to calculate the IC50 values. […]

Row | Structure (SMILES) | MIC ([1]; Escherichia coli) [µg/mL] | MIC ([2]; Enterococcus faecium) [µg/mL] | MIC ([3]; Pseudomonas aeruginosa) [µg/mL] | MIC ([4]; Bacillus subtilis) [µg/mL] | MIC [5] [µg/mL] | MIC ([6]; Staphylococcus aureus) [µg/mL] | MIC ([7]; Enterococcus faecium) [µg/mL] | MIC ([8]; Staphylococcus aureus) [µg/mL] | MIC [9] [µg/mL] | MIC ([1]; Escherichia coli MTCC 443, read-out: MIC) [µg/mL] | MIC [10] [µg/mL] | MIC ([2]; Enterococcus faecium ATCC 51559 (VRE resistant), read-out: MIC) [µg/mL] | MIC ([3]; Pseudomonas aeruginosa MTCC 741, read-out: MIC) [µg/mL] | MIC ([4]; Bacillus subtilis MTCC 441, read-out: MIC) [µg/mL] | MIC ([5]; Klebsiella pneumonia MTCC 618, read-out: MIC) [µg/mL] | IC50 [11] [nM] | MIC ([6]; Staphylococcus aureus ATCC BAA-1556 (MERSA resistant), read-out: MIC) [µg/mL] | MIC ([7]; Enterococcus faecium ATCC 35667, read-out: MIC) [µg/mL] | MIC ([8]; Staphylococcus aureus ATCC 29213, read-out: MIC) [µg/mL] | MIC ([9]; read-out: MIC) [µg/mL]
1 | CN[C@H](CC(C)C)C(=O)N[C@H]1C(=O)N[C@@H](CC(N)=O)C(=O)N[C@H]2C(=O)N[C@H]3C(=O)N[C@H](C(=O)N[C@H](C(=O)O)c4cc(O)cc(O)c4-c4cc3ccc4O)[C@H](O)c3ccc(c(Cl)c3)Oc3cc2cc(c3O[C@@H]2O[C@H](CO)[C@@H](O)[C@H](O)[C@H]2O[C@H]2C[C@](C)(N)[C@H](O)[C@H](C)O2)Oc2ccc(cc2Cl)[C@H]1O [Vancomycin, reference compound] | > 128 | > 128 | > 128 | 0.5 (≈ 0.345 µM) | > 128 | 1 (≈ 0.69 µM) | 0.5 (≈ 0.345 µM) | 1 (≈ 0.69 µM) | 1 (≈ 0.69 µM) |  |  |  |  |  |  |  |  |  |  | 
2 | CCCCCN(C)Cc1cc(C(=O)O)ccc1/C=C/C(=O)c1cc2cc(F)cc(NC)c2[nH]c1=O [Compound 7, (E)-4-(3-(6-fluoro-8-(methylamino)-2-oxo-1,2-dihydroquinolin-3-yl)-3-oxoprop-1-en-1-yl)-3-((methyl(pentyl)amino)methyl)benzoic acid] |  |  |  |  |  |  |  |  |  | 1 (≈ 2.09 µM) | 4 (≈ 8.34 µM) | 0.25 (≈ 0.521 µM) | 0.25 (≈ 0.521 µM) | 0.25 (≈ 0.521 µM) | 0.5 (≈ 1.04 µM) | 12 | 0.5 (≈ 1.04 µM) | 0.25 (≈ 0.521 µM) | 0.5 (≈ 1.04 µM) | 0.5 (≈ 1.04 µM)
